From patent US11155520B2, “Picolinamides as fungicides” (Dow AgroSciences LLC, priority 2018, dated 2021)

Assays:
Type in all cases: in vivo
Phakopsora pachyrhizi = test: Fungicidal activity: Asian soybean rust (PHAKPA); conditions: High volume, 25 ppm; for PHAKPA 1DP disease control: 1 Day Protectant; for PHAKPA 3DC disease control: 3 Day Curative
Description: Technical grades of materials were dissolved in acetone, which were then mixed with nine volumes of water containing 0.011% Tween 20. The fungicide solutions were applied onto soybean seedlings using an automated booth sprayer to run-off. All sprayed plants were allowed to air dry prior to further handling.
Soybean plants (variety Williams 82) were grown in soil-less Metro mix, with one plant per pot. Two week old seedlings were used for testing. Plants were inoculated either 3 days prior to or 1 day after fungicide treatments. Plants were incubated for 24 h in a dark dew room at 22° C. and 100% relative humidity then transferred to a growth room at 23° C. for disease to develop. Disease severity was assessed on the sprayed leaves.

Parastagonospora nodorum = test: Fungicidal activity: wheat glume blotch (LEPTNO); conditions: 1DP test at 100 ppm
Description: Technical grades of materials were dissolved in acetone, which were then mixed with nine volumes of water containing 110 ppm Triton X-100. The fungicide solutions were applied onto wheat seedlings using an automated booth sprayer to run-off. All sprayed plants were allowed to air dry prior to further handling. All fungicides were evaluated using the aforementioned method for their activity vs. all target diseases, unless stated otherwise. Wheat leaf blotch and brown rust activity were also evaluated using track spray applications, in which case the fungicides were formulated as EC formulations, containing 0.1% Trycol 5941 in the spray solutions. Wheat plants (variety Yuma) were grown from seed in a greenhouse in 50% mineral soil/50% soil-less Metro mix until the first leaf was fully emerged, with 7-10 seedlings per pot. These plants were inoculated with an aqueous spore suspension of Parastagonospora nodorum 24 hr after fungicide treatments. After inoculation the plants were kept in 100% relative humidity (one day in a dark dew chamber followed by two days in a lighted dew chamber at 20° C.) to permit spores to germinate and infect the leaf. The plants were then transferred to a greenhouse set at 20° C. for disease to develop. Fungicide formulation, application and disease assessment followed the procedures as described in the Example A.

Uncinula necator = test: Fungicidal activity: grape powdery mildew (UNCINE); conditions: 1DP test at 100 ppm
Description: Technical grades of materials were dissolved in acetone, which were then mixed with nine volumes of water containing 110 ppm Triton X-100. The fungicide solutions were applied onto wheat seedlings using an automated booth sprayer to run-off. All sprayed plants were allowed to air dry prior to further handling. All fungicides were evaluated using the aforementioned method for their activity vs. all target diseases, unless stated otherwise. Wheat leaf blotch and brown rust activity were also evaluated using track spray applications, in which case the fungicides were formulated as EC formulations, containing 0.1% Trycol 5941 in the spray solutions. Grape seedlings (variety Carignane) were grown in soil-less Metro mix, with one plant per pot, and used in the test when approximately 1 month old. Plants were inoculated 24 hr after fungicide treatment by shaking spores from infected leaves over test plants. Plants were maintained in a greenhouse set at 20° C. until disease was fully developed. Fungicide formulation, application and disease assessment on sprayed leaves followed the procedures as described in the Example A.

Rhyncosporium secalis = test: Fungicidal activity: barley scald (RHYNSE); conditions: 1DP test at 100 ppm
Description: Technical grades of materials were dissolved in acetone, which were then mixed with nine volumes of water containing 110 ppm Triton X-100. The fungicide solutions were applied onto wheat seedlings using an automated booth sprayer to run-off. All sprayed plants were allowed to air dry prior to further handling. All fungicides were evaluated using the aforementioned method for their activity vs. all target diseases, unless stated otherwise. Wheat leaf blotch and brown rust activity were also evaluated using track spray applications, in which case the fungicides were formulated as EC formulations, containing 0.1% Trycol 5941 in the spray solutions. Barley seedlings (variety Harrington) were propagated in soil-less Metro mix, with each pot having 8 to 12 plants, and used in the test when first leaf was fully emerged. Test plants were inoculated by an aqueous spore suspension of Rhyncosporium secalis 24 hr after fungicide treatments. After inoculation the plants were kept in a dew room at 20° C. with 100% relative humidity for 48 hr. The plants were then transferred to a greenhouse set at 20° C. for disease to develop. Fungicide formulation, application and disease assessment on the sprayed leaves followed the procedures as described in the Example A.

Alternaria solani = test: Fungicidal activity: tomato early blight (ALTESO); conditions: 1DP test at 100 ppm
Description: Technical grades of materials were dissolved in acetone, which were then mixed with nine volumes of water containing 110 ppm Triton X-100. The fungicide solutions were applied onto wheat seedlings using an automated booth sprayer to run-off. All sprayed plants were allowed to air dry prior to further handling. All fungicides were evaluated using the aforementioned method for their activity vs. all target diseases, unless stated otherwise. Wheat leaf blotch and brown rust activity were also evaluated using track spray applications, in which case the fungicides were formulated as EC formulations, containing 0.1% Trycol 5941 in the spray solutions. Tomato plants (variety Outdoor Girl) were propagated in soil-less Metro mix, with each pot having one plant, and used when 12 to 14 days old. Test plants were inoculated with an aqueous spore suspension of Alternaria solani 24 hr after fungicide treatments. After inoculation the plants were kept in 100% relative humidity (one day in a dark dew chamber followed by two to three days in a lighted dew chamber at 20° C.) to permit spores to germinate and infect the leaf. The plants were then transferred to a growth room at 22° C. for disease to develop. Fungicide formulation, application and disease assessment on the sprayed leaves followed the procedures as described in the Example A.

Cercospora beticola = test: Fungicidal activity: leaf spot of sugar beets (CERCBE); conditions: 1DP test at 100 ppm, sugar beet
Description: Technical grades of materials were dissolved in acetone, which were then mixed with nine volumes of water containing 110 ppm Triton X-100. The fungicide solutions were applied onto wheat seedlings using an automated booth sprayer to run-off. All sprayed plants were allowed to air dry prior to further handling. All fungicides were evaluated using the aforementioned method for their activity vs. all target diseases, unless stated otherwise. Wheat leaf blotch and brown rust activity were also evaluated using track spray applications, in which case the fungicides were formulated as EC formulations, containing 0.1% Trycol 5941 in the spray solutions. Sugar beet plants (variety HH88) were grown in soil-less Metro mix and trimmed regularly to maintain a uniform plant size prior to test. Plants were inoculated with a spore suspension 24 hr after fungicide treatments. Inoculated plants were kept in a dew chamber at 22° C. for 48 hr then incubated in a greenhouse set at 24° C. under a clear plastic hood with bottom ventilation until disease symptoms were fully expressed. Fungicide formulation, application and disease assessment on the sprayed leaves followed the procedures as described in the Example A.

[1] = system: Glomerella lagenarium; Anamorph: Colletotrichum lagenarium; test: Fungicidal activity: cucumber anthracnose (COLLLA); conditions: 1DP test at 100 ppm
Description: Technical grades of materials were dissolved in acetone, which were then mixed with nine volumes of water containing 110 ppm Triton X-100. The fungicide solutions were applied onto wheat seedlings using an automated booth sprayer to run-off. All sprayed plants were allowed to air dry prior to further handling. All fungicides were evaluated using the aforementioned method for their activity vs. all target diseases, unless stated otherwise. Wheat leaf blotch and brown rust activity were also evaluated using track spray applications, in which case the fungicides were formulated as EC formulations, containing 0.1% Trycol 5941 in the spray solutions. Cucumber seedlings (variety Bush Pickle) were propagated in soil-less Metro mix, with each pot having one plant, and used in the test when 12 to 14 days old. Test plants were inoculated with an aqueous spore suspension of Colletotrichum lagenarium 24 hr after fungicide treatments. After inoculation the plants were kept in a dew room at 22° C. with 100% relative humidity for 48 hr to permit spores to germinate and infect the leaf. The plants were then transferred to a growth room set at 22° C. for disease to develop. Fungicide formulation, application and disease assessment on the sprayed leaves followed the procedures as described in the Example A.

[2] = system: Magnaporthe grisea; Anamorph: Pyricularia oryzae; conditions: 1DP test at 100 ppm, rice
[3] = system: Pseudoperonospora cubensis; test: Fungicidal activity: cucumber downy mildew (PSPECU); conditions: 1DP test at 100 ppm
Description: Technical grades of materials were dissolved in acetone, which were then mixed with nine volumes of water containing 110 ppm Triton X-100. The fungicide solutions were applied onto wheat seedlings using an automated booth sprayer to run-off. All sprayed plants were allowed to air dry prior to further handling. All fungicides were evaluated using the aforementioned method for their activity vs. all target diseases, unless stated otherwise. Wheat leaf blotch and brown rust activity were also evaluated using track spray applications, in which case the fungicides were formulated as EC formulations, containing 0.1% Trycol 5941 in the spray solutions. Cucumber seedlings (variety Bush Pickle) were grown in soil-less Metro mix, with one plant per pot, and used in the test when 12 to 14 days old. Plants were inoculated with a spore suspension 24 hr following fungicide treatments. Test plants were inoculated with an aqueous spore suspension of Pseudoperonospora cubensis 24 hr after fungicide treatments. After inoculation the plants were kept in a dew room at 22° C. with 100% relative humidity for 24 hr to permit spores to germinate and infect the leaf. The plants were then transferred to a greenhouse set at 20° C. until disease was fully expressed. Fungicide formulation, application and disease assessment on the sprayed leaves followed the procedures as described in the Example A.

| Structure (SMILES) | PHAKPA 1DP disease control (Phakopsora pachyrhizi) | LEPTNO disease control (Parastagonospora nodorum) | UNCINE disease control (Uncinula necator) | RHYNSE disease control (Rhyncosporium secalis) | ALTESO disease control (Alternaria solani) | CERCBE disease control (Cercospora beticola) | COLLLA disease control [1] | PYRIOR disease control [2] | PSPECU disease control [3] | PHAKPA 3DC disease control (Phakopsora pachyrhizi) |
| --- | --- | --- | --- | --- | --- | --- | --- | --- | --- | --- |
| COc1ccnc(C(=O)N[C@H](C(=O)O[C@H](C)[C@H](C)c2ccc(F)cc2C)C(C)C)c1OC(=O)C(C)C [Example 214] | B (≤80) |  |  |  |  |  |  |  |  |  |
| COc1ccnc(C(=O)N[C@@H](C)C(=O)O[C@@H](C)[C@@H](C)c2ccccc2C)c1OC(C)=O [Example 264] |  | A (>80) | A (>80) | B (≤80) | B (≤80) | A (>80) | B (≤80) | A (>80) | B (≤80) |  |
| COc1ccnc(C(=O)N[C@H](C(=O)O[C@@H](C)[C@H](C)c2ccc(F)cc2C)C(C)C)c1OC(=O)C(C)C [Example 210] |  |  |  |  |  |  |  |  |  | D (≤0) |
| COc1ccnc(C(=O)N[C@@H](C)C(=O)O[C@H](C)[C@@H](C)c2ccccc2C)c1OC(=O)C(C)C [Example 225] | D (≤0) |  |  |  |  |  |  |  |  |  |
| COc1ccnc(C(=O)NCC(=O)O[C@@H](C)[C@H](C)c2ccc(F)cc2C)c1OC(=O)C(C)C [Example 197] | D (≤0) |  |  |  |  |  |  |  |  | D (≤0) |
| COc1ccnc(C(=O)N[C@@H](C)C(=O)O[C@H](C)[C@H](C)c2ccccc2C)c1OC(C)=O [Example 263] |  | B (≤80) | A (>80) | B (≤80) | B (≤80) | B (≤80) | D (≤0) | B (≤80) | B (≤80) |  |
| COc1ccnc(C(=O)N[C@@H](C)C(=O)O[C@@H](C)[C@@H](C)c2ccccc2C)c1OC(=O)C(C)C [Example 266] |  | A (>80) | A (>80) | B (≤80) | B (≤80) | B (≤80) | D (≤0) | A (>80) | D (≤0) |  |
